In brackets after ≈: the same amount, converted by molar mass. Where two headings read alike, the source gives them in different places.
Tests used:
[1] = molecular target: T1, Mtb ClpP1P2 (Mycobacterium tuberculosis, UniProt P9WPC3+P9WPC5); experiment: Mtb ClpP1P2 peptidase assay (library screening and IC50 determination); assay type: biochemical
[2] = tested on: GH200 (scrambled sgRNA control); assay type: cell-based, M. bovis BCG
[3] = Hydrolysis in protein‐free buffer (data not published); assay type: physicochemical; settings: over time
[4] = tested on: ClpP1(7‐200) ClpP2(16‐214) enzyme complex; experiment: Intact protein MS; assay type: binding, Mycobacterium tuberculosis; settings: 100 μM compound, 10 μM enzyme, 1 h
Protocol: 10 μM of the ClpP1(7‐200) ClpP2(16‐214) enzyme complex was incubated with DMSO (as negative control) and 100 μM GDI‐5755 separately in 30 mM PIPES buffer only at room temperature in a final reaction volume of 40 μl. After 1 h of incubation, the samples were sent to a service lab at Peking University for a Matrix‐Assisted Laser Desorption/Ionization (MALDI) Time‐of‐Flight (TOF) MS analysis.

[5] = molecular target: T1, Mtb ClpP1P2; experiment: k obs/[I] determination from progress curves; assay type: biochemical; settings: no pre‐incubation, 50 nM ClpP1P2, 200 µM substrate
Protocol: 10 µM ClpP1P2 was pre‐incubated with 10 µM GDI‐5755 or DMSO solvent for 60 min at room temperature. To induce the formation of the [EI] complex, 0.5 mM Bz‐HT was also added. The mixture was diluted 100‐, 200‐, or 400‐fold to a 50 µl final volume with the peptidase reaction buffer and 20 μM substrate to start the jump dilution experiment. Fluorescence was recorded every 5 min continuously over a 220‐min course. To determine the k obs of the competitive inhibitor, the compound was dispended into a black 384‐well plate in a twofold concentration gradient from 20 µM to 0.5 µM. Without pre‐incubation, the other components (50 nM ClpP1P2, 200 µM substrate, and 0.5 mM Bz‐HT in the PIPES buffer as above) were added like in the peptidase degradation assay. The progress was monitored by continuously recording the fluorescence readouts. The fluorescence vs reaction time in seconds was fitted into Equation (2) using GraphPad Prism 10. (2) [P]=νst+νi−νs/kobs[1−exp(−kobst)] where P represents the product concentration, v s is the steady‐state reaction rate (0 in this case), v i is the initial rate, t is a time point, and k obs is the first‐order rate constant for onset of inhibition. The k obs values obtained were plotted against the inhibitor concentration and fitted into linear regression to yield k obs/[I] values as the slope, indicating the inhibition potency of the compound.

[6] = tested on: M. tuberculosis H37Rv; set-up: method as in PubChem; settings: ref PubChem; cited from earlier work

T1 sequence (P9WPC3 16-214, one chain of several): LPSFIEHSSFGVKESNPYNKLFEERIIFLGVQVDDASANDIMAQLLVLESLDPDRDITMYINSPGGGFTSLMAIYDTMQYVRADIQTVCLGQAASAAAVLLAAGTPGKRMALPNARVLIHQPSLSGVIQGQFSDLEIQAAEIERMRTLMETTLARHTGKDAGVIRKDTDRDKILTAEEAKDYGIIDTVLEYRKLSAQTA

Compound: O=C(Oc1ccc(Cl)cc1)c1ccc(N2CCOCC2)c([N+](=O)[O-])c1 [GDI‐5755]
- IC50 ([1]; Figure 2B, neat/synthesized compounds, read-out: ClpP1P2 IC50): ~2100 nM
- IC50 ([1]; enzyme pre‐incubated with inhibitor before adding substrate, decreased to nearly enzyme concentration, read-out: IC50 after prolonged pre‐incubation): ~130 nM
- IC50 ([1]; library stocks, concentration–response, read-out: IC50): 2090 nM
- IC50 ([1]; resynthesized compound, screening assay conditions, three replicates, read-out: IC50): 2400 ± 70 nM
- MIC shift against GH200 on ATc induction [2]: did not show shifting
- stability in protein‐free buffer [3]: susceptible to hydrolysis
- mass difference between new species and ClpP1 [4]: 234.30 Da
- mass of ClpP2 after treatment [4]: unchanged
- inactivation efficiency k obs/[I] [5]: 178 ± 10.7 M⁻¹ s⁻¹
- MIC against H37Rv, reported [6]: 3.16 µM (≈ 1.15 µg/mL)
